Data from publication PMC8699473, “An Easily Expandable Multi-Drug LC-MS Assay for the Simultaneous Quantification of 57 Oral Antitumor Drugs in Human Plasma” (Cancers, 2021).

Assay: Long-term stability in spiked pooled human plasma

Structure (SMILES) | Long-term stability, 1 month, -20°C Accuracy [%] (validation standard 2xLLOV) | Long-term stability, 1 month, -80°C Accuracy [%] (validation standard 2xLLOV) | Long-term stability, 2 month, -20°C Accuracy [%] (validation standard 2xLLOV) | Long-term stability, 2 month, -80°C Accuracy [%] (validation standard 2xLLOV) | Long-term stability, 3 month, -20°C Accuracy [%] (validation standard 2xLLOV) | Long-term stability, 3 month, -80°C Accuracy [%] (validation standard 2xLLOV) | Long-term stability, 6 weeks, 4°C, without daylight Accuracy [%] (validation standard 2xLLOV) | Long-term stability, 1 month, -20°C Accuracy [%] (validation standard LLOV) | Long-term stability, 1 month, -80°C Accuracy [%] (validation standard LLOV) | Long-term stability, 2 month, -20°C Accuracy [%] (validation standard LLOV) | Long-term stability, 2 month, -80°C Accuracy [%] (validation standard LLOV) | Long-term stability, 3 month, -20°C Accuracy [%] (validation standard LLOV) | Long-term stability, 3 month, -80°C Accuracy [%] (validation standard LLOV) | Long-term stability, 6 weeks, 4°C, without daylight Accuracy [%] (validation standard LLOV) | Long-term stability, 1 month, -20°C Accuracy [%] (validation standard MOV) | Long-term stability, 1 month, -80°C Accuracy [%] (validation standard MOV) | Long-term stability, 2 month, -20°C Accuracy [%] (validation standard MOV) | Long-term stability, 2 month, -80°C Accuracy [%] (validation standard MOV) | Long-term stability, 3 month, -20°C Accuracy [%] (validation standard MOV) | Long-term stability, 3 month, -80°C Accuracy [%] (validation standard MOV) | other results
COc1cc2ncnc(Nc3ccc(F)c(Cl)c3)c2cc1NC(=O)/C=C/CN1CCCCC1 [Dacomitinib] | 94.4% | 91.2% | 96.1% | 107.1% | 89.4% | 94.7% | 62.3% | 86.5% | 87.2% | 96.8% | 105.1% | 83.4% | 96.1% | 61.0% | 91.7% | 95.2% | 95.1% | 99.2% | 90.9% | 99.4% | Long-term stability, 6 weeks, 4°C, without daylight Accuracy [%] (validation standard MOV): 79.1%; Long-term stability, 1 month, -20°C Accuracy [%] (validation standard ULOV): 93.0%; Long-term stability, 1 month, -80°C Accuracy [%] (validation standard ULOV): 93.2%; Long-term stability, 2 month, -20°C Accuracy [%] (validation standard ULOV): 96.3%; Long-term stability, 2 month, -80°C Accuracy [%] (validation standard ULOV): 99.6%; Long-term stability, 3 month, -20°C Accuracy [%] (validation standard ULOV): 90.3%; Long-term stability, 3 month, -80°C Accuracy [%] (validation standard ULOV): 97.6%; Long-term stability, 6 weeks, 4°C, without daylight Accuracy [%] (validation standard ULOV): 77.8%
Cc1nc(Nc2ncc(C(=O)Nc3c(C)cccc3Cl)s2)cc(N2CCN(CCO)CC2)n1 [Dasatinib] | 99.2% | 92.5% | 98.2% | 96.3% | 102.0% | 99.1% | 72.6% | 108.6% | 89.0% | 82.2% | 84.9% | 81.3% | 85.5% | 79.4% | 97.7% | 91.3% | 92.8% | 92.3% | 102.9% | 101.1% | Long-term stability, 6 weeks, 4°C, without daylight Accuracy [%] (validation standard MOV): 102.3%; Long-term stability, 1 month, -20°C Accuracy [%] (validation standard ULOV): 97.7%; Long-term stability, 1 month, -80°C Accuracy [%] (validation standard ULOV): 93.4%; Long-term stability, 2 month, -20°C Accuracy [%] (validation standard ULOV): 95.6%; Long-term stability, 2 month, -80°C Accuracy [%] (validation standard ULOV): 100.4%; Long-term stability, 3 month, -20°C Accuracy [%] (validation standard ULOV): 104.5%; Long-term stability, 3 month, -80°C Accuracy [%] (validation standard ULOV): 105.8%; Long-term stability, 6 weeks, 4°C, without daylight Accuracy [%] (validation standard ULOV): 97.9%
COC(=O)N[C@@H](C)CNc1nccc(-c2cn(C(C)C)nc2-c2cc(Cl)cc(NS(C)(=O)=O)c2F)n1 [Encorafenib] | 100.7% | 93.5% | 111.7% | 104.1% | 97.4% | 95.2% | 95.2% | 84.2% | 88.1% | 103.4% | 93.1% | 96.1% | 94.9% | 81.0% | 99.0% | 97.1% | 102.3% | 104.9% | 101.8% | 100.8% | Long-term stability, 6 weeks, 4°C, without daylight Accuracy [%] (validation standard MOV): 109.2%; Long-term stability, 1 month, -20°C Accuracy [%] (validation standard ULOV): 99.1%; Long-term stability, 1 month, -80°C Accuracy [%] (validation standard ULOV): 95.7%; Long-term stability, 2 month, -20°C Accuracy [%] (validation standard ULOV): 104.0%; Long-term stability, 2 month, -80°C Accuracy [%] (validation standard ULOV): 101.8%; Long-term stability, 3 month, -20°C Accuracy [%] (validation standard ULOV): 100.7%; Long-term stability, 3 month, -80°C Accuracy [%] (validation standard ULOV): 99.0%; Long-term stability, 6 weeks, 4°C, without daylight Accuracy [%] (validation standard ULOV): 101.7%
C#Cc1cccc(Nc2ncnc3cc(OCCOC)c(OCCOC)cc23)c1 [Erlotinib] | 102.3% | 98.1% | 106.4% | 105.9% | 106.0% | 105.8% | 95.9% | 113.5% | 108.0% | 113.2% | 114.8% | 111.5% | 114.1% | 107.0% | 97.4% | 97.0% | 102.2% | 101.3% | 102.2% | 102.8% | Long-term stability, 6 weeks, 4°C, without daylight Accuracy [%] (validation standard MOV): 111.0%; Long-term stability, 1 month, -20°C Accuracy [%] (validation standard ULOV): 99.6%; Long-term stability, 1 month, -80°C Accuracy [%] (validation standard ULOV): 97.8%; Long-term stability, 2 month, -80°C Accuracy [%] (validation standard ULOV): 104.4%; Long-term stability, 3 month, -20°C Accuracy [%] (validation standard ULOV): 101.8%; Long-term stability, 3 month, -80°C Accuracy [%] (validation standard ULOV): 104.4%; Long-term stability, 6 weeks, 4°C, without daylight Accuracy [%] (validation standard ULOV): 103.7%
